{"source": "patent US9415009B2", "about": "(Pearl Therapeutics, Inc., priority 2009, dated 2016)", "experiment": "Particle size distribution by laser diffraction (Sympatec, Fraunhofer mode)", "assay_type": "physicochemical", "settings": "for optical diameter that 50% by volume of the micronized particles are smaller than / optical diameter that 90% by volume of the micronized particles are smaller than: micronized active agent particles", "key": {"[1]": {"settings": "Example 4, Table 2, micronized API"}, "[2]": {"settings": "Example 9, Table 9, primary particle size"}, "[3]": {"settings": "Example 10, Table 11, Triple GFM primary particle size"}, "[4]": {"settings": "Example 10, Table 12, Triple TFM primary particle size"}}}
{"smiles": "COc1ccc(C[C@@H](C)NC[C@H](O)c2ccc(O)c(NC=O)c2)cc1", "note": "(racemic) [Coarse FF API, (±)-2-hydroxy-5-[(1RS)-1-hydroxy-2-[[(1RS)-2-(4-methoxyphenyl)-1-methylethyl]-amino]ethyl]formanilide]", "values": [{"measurement": "Span", "setting": "[1]", "result": 2.0}]}
{"smiles": "COc1ccc(C[C@@H](C)NC[C@H](O)c2ccc(O)c(NC=O)c2)cc1", "note": "(racemic) [FF API, (±)-2-hydroxy-5-[(1RS)-1-hydroxy-2-[[(1RS)-2-(4-methoxyphenyl)-1-methylethyl]-amino]ethyl]formanilide]", "values": [{"measurement": "Span", "setting": "[2]", "result": 1.8}, {"measurement": "Span", "setting": "[3]", "result": 1.9}, {"measurement": "Span", "setting": "[4]", "result": 1.9}, {"measurement": "Span", "setting": "Example 11, Table 14", "result": 1.8}]}
{"smiles": "COc1ccc(C[C@@H](C)NC[C@H](O)c2ccc(O)c(NC=O)c2)cc1", "note": "(racemic) [Fine FF API, (±)-2-hydroxy-5-[(1RS)-1-hydroxy-2-[[(1RS)-2-(4-methoxyphenyl)-1-methylethyl]-amino]ethyl]formanilide]", "values": [{"measurement": "Span", "setting": "[1]", "result": 1.5}, {"measurement": "d90 (μm)", "setting": "[1]", "result": 2.3, "unit": "μm"}]}
{"smiles": "CCC(=O)O[C@]1(C(=O)SCF)[C@H](C)C[C@H]2[C@@H]3C[C@H](F)C4=CC(=O)C=C[C@]4(C)[C@@]3(F)[C@@H](O)C[C@@]21C", "note": "[FP, S-(fluoromethyl)6^α,9-difluoro-11^β-17-dihydroxy-16^α-methyl-3-oxoandrosta-1,4-diene-17^β-carbothioate, 17-propionate]", "values": [{"measurement": "optical diameter that 50% by volume of the micronized particles are smaller than", "result": 2.6, "unit": "μm"}, {"measurement": "optical diameter that 90% by volume of the micronized particles are smaller than", "result": 6.6, "unit": "μm"}]}
{"smiles": "C[C@@H]1C[C@H]2[C@@H]3CCC4=CC(=O)C=C[C@]4(C)[C@@]3(Cl)[C@@H](O)C[C@]2(C)[C@@]1(OC(=O)c1ccco1)C(=O)CCl", "note": "[MF, 9α,21-dichloro-11β,17-dihydroxy-16α-methylpregna-1,4-diene-3,20-dione 17-(2-furoate)]", "values": [{"measurement": "Span", "setting": "[2]", "result": 2.2}, {"measurement": "×10 (μm)", "setting": "[2]", "result": 0.4, "unit": "μm"}, {"measurement": "×50 (μm)", "setting": "[2]", "result": 1.1, "unit": "μm"}, {"measurement": "×90 (μm)", "setting": "[2]", "result": 2.8, "unit": "μm"}, {"measurement": "Span", "setting": "[3]", "result": 1.9}, {"measurement": "d10 (μm)", "setting": "[3]", "result": 0.4, "unit": "μm"}, {"measurement": "d50 (μm)", "setting": "[3]", "result": 1.0, "unit": "μm"}, {"measurement": "d90 (μm)", "setting": "[3]", "result": 2.3, "unit": "μm"}, {"measurement": "Span", "setting": "[4]", "result": 2.2}, {"measurement": "d10 (μm)", "setting": "[4]", "result": 0.4, "unit": "μm"}, {"measurement": "d50 (μm)", "setting": "[4]", "result": 1.1, "unit": "μm"}, {"measurement": "d90 (μm)", "setting": "[4]", "result": 2.8, "unit": "μm"}, {"measurement": "optical diameter that 50% by volume of the micronized particles are smaller than", "result": 1.6, "unit": "μm"}, {"measurement": "optical diameter that 90% by volume of the micronized particles are smaller than", "result": 3.5, "unit": "μm"}]}
{"smiles": "C[N+]1(C)[C@@H]2C[C@@H](OC(=O)C(O)(c3cccs3)c3cccs3)C[C@H]1[C@@H]1O[C@@H]12", "note": "[Micronized Tiotropium Bromide Anhydrous, tiotropium bromide]", "values": [{"measurement": "Span", "setting": "[4]", "result": 2.7}, {"measurement": "d10 (μm)", "setting": "[4]", "result": 0.5, "unit": "μm"}, {"measurement": "d50 (μm)", "setting": "[4]", "result": 1.3, "unit": "μm"}, {"measurement": "d90 (μm)", "setting": "[4]", "result": 3.9, "unit": "μm"}]}
{"smiles": "OCc1cc(C(O)CNCCCCCCOCCCCc2ccccc2)ccc1O", "note": "(stereo not drawn) [SX, 4-hydroxy-α1-[[[6-(4-phenylbutoxy)hexyl]amino]methyl]-1,3-benzenedimethanol, 1-hydroxy-2-naphthalenecarboxylate]", "values": [{"measurement": "optical diameter that 50% by volume of the micronized particles are smaller than", "result": 2, "unit": "μm"}, {"measurement": "optical diameter that 90% by volume of the micronized particles are smaller than", "result": 3.9, "unit": "μm"}]}
